Laboratory results taken from US20160002204A1 (Board of Regents, The University of Texas System, priority 2014, published 2016).

Tests used:
[1] = target: T1, GLS1 (purified recombinant human GAC) (Homo sapiens, UniProt O94925); test: GLS1 enzymatic activity assay (dual-coupled, Amplex UltraRed/resorufin); type: biochemical
T1 sequence (O94925 55-598 isoform O94925-3 limits assumed): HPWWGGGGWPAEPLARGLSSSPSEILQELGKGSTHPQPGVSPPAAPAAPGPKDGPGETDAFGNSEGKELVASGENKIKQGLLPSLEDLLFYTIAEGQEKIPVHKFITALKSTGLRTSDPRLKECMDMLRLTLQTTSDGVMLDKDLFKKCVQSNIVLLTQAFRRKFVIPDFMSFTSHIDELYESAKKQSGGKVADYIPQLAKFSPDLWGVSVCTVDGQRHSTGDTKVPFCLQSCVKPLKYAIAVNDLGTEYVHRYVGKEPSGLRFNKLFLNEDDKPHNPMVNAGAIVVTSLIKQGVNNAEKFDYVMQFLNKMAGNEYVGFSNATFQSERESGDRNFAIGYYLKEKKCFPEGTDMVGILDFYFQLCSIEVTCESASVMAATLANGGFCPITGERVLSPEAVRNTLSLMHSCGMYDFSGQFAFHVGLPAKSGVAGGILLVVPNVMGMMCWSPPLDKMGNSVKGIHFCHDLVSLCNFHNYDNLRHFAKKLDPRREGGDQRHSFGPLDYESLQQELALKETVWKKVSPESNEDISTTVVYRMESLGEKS
Summary of the method: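 In this coupled fluorometric format, phosphate-activated GAC (2 nM, 50 mM phosphate) is pre-exposed to compound for 10 min before 1 mM glutamine addition. Product is tracked as resorufin (530/590 nm) over time or at 20 min, and potency is derived by logistic fitting.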

A549 cells = test: A549 proliferation (viability) assay, Cell Titer Fluor, 72 hours; type: cell-based; details: Homo sapiens
Summary of the method: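 Compound was added to A549 cells (1000/well, pre-grown 24 h in RPMI 1640 plus 10% dialyzed FBS) at 0.5% DMSO and left 72 h under 37 °C, 5% CO2, ambient O2. Live-cell fluorescence (Cell Titer Fluor) gave the EC50.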

## CC(C)(C)OC(=O)N[C@H]1CC[C@@H](CC(=O)Nc2ccn(CCC(F)Cn3cc(C(=O)NCc4cccc(OC(F)(F)F)c4)nn3)c(=O)c2)CC1 (stereo partly shown) [Example 241, tert-butyl N-[(1s,4s)-4-{[(1-{3-fluoro-4-[4-({[3-(trifluoromethoxy)phenyl]methyl}carbamoyl)-1H-1,2,3-triazol-1-yl]butyl}-2-oxo-1,2-dihydropyridin-4-yl)carbamoyl]methyl}cyclohexyl]carbamate]
[1]
  IC50: < 100 nM
A549 cells
  EC50: < 100 nM

## O=C(CC1CCN(CC(F)F)CC1)Nc1ccn(CCC(F)Cn2cc(C(=O)NCc3cccc(OC(F)(F)F)c3)nn2)c(=O)c1 (stereo not shown) [Example 242, 1-[4-(4-{2-[1-(2,2-difluoroethyl)piperidin-4-yl]acetamido}-2-oxo-1,2-dihydropyridin-1-yl)-2-fluorobutyl]-N-{[3-(trifluoromethoxy)phenyl]methyl}-1H-1,2,3-triazole-4-carboxamide]
[1]
  IC50: < 100 nM
A549 cells
  EC50: 100 to 500 nM

## O=C(Cc1ncc(Cl)cc1F)Nc1ccn(CCC(F)Cn2cc(C(=O)NCc3cccc(OC(F)(F)F)c3)nn2)c(=O)c1 (stereo not shown) [Example 243, 1-(4-{4-[2-(5-chloro-3-fluoropyridin-2-yl)acetamido]-2-oxo-1,2-dihydropyridin-1-yl}-2-fluorobutyl)-N-{[3-(trifluoromethoxy)phenyl]methyl}-1H-1,2,3-triazole-4-carboxamide]
[1]
  IC50: < 100 nM
A549 cells
  EC50: 100 to 500 nM

## CC(=O)N1CCC(CC(=O)Nc2ccn(CCC(F)Cn3cc(C(=O)NCc4cccc(OC(F)(F)F)c4)nn3)c(=O)c2)CC1 (stereo not shown) [Example 244, 1-(4-{4-[2-(1-acetylpiperidin-4-yl)acetamido]-2-oxo-1,2-dihydropyridin-1-yl}-2-fluorobutyl)-N-{[3-(trifluoromethoxy)phenyl]methyl}-1H-1,2,3-triazole-4-carboxamide]
[1]
  IC50: < 100 nM
A549 cells
  EC50: 500 to 5000 nM

## CC(C)(C)OC(=O)N1CCCC(CC(=O)Nc2ccn(CCC(F)Cn3cc(C(=O)NCc4cccc(OC(F)(F)F)c4)nn3)c(=O)c2)C1 (stereo not shown) [Example 245, tert-butyl 3-{[(1-{3-fluoro-4-[4-({[3-(trifluoromethoxy)phenyl]methyl}carbamoyl)-1H-1,2,3-triazol-1-yl]butyl}-2-oxo-1,2-dihydropyridin-4-yl)carbamoyl]methyl}piperidine-1-carboxylate]
[1]
  IC50: < 100 nM
A549 cells
  EC50: < 100 nM

## O=C(Cc1cccnc1)Nc1ccn(CCC(F)Cn2cc(C(=O)NCc3cccc(OC(F)(F)F)c3)nn2)c(=O)c1 (stereo not shown) [Example 246, 1-(2-fluoro-4-{2-oxo-4-[2-(pyridin-3-yl)acetamido]-1,2-dihydropyridin-1-yl}butyl)-N-{[3-(trifluoromethoxy)phenyl]methyl}-1H-1,2,3-triazole-4-carboxamide]
[1]
  IC50: < 100 nM
A549 cells
  EC50: 500 to 5000 nM

## O=C(Cc1cscn1)Nc1ccn(CCC(F)Cn2cc(C(=O)NCc3cccc(OC(F)(F)F)c3)nn2)c(=O)c1 (stereo not shown) [Example 247, 1-(2-fluoro-4-{2-oxo-4-[2-(1,3-thiazol-4-yl)acetamido]-1,2-dihydropyridin-1-yl}butyl)-N-{[3-(trifluoromethoxy)phenyl]methyl}-1H-1,2,3-triazole-4-carboxamide]
[1]
  IC50: < 100 nM
A549 cells
  EC50: 500 to 5000 nM

## Cc1ccc(CC(=O)Nc2ccn(CCC(F)Cn3cc(C(=O)NCc4cccc(OC(F)(F)F)c4)nn3)c(=O)c2)cn1 (stereo not shown) [Example 248, 1-(2-fluoro-4-{4-[2-(6-methylpyridin-3-yl)acetamido]-2-oxo-1,2-dihydropyridin-1-yl}butyl)-N-{[3-(trifluoromethoxy)phenyl]methyl}-1H-1,2,3-triazole-4-carboxamide]
[1]
  IC50: < 100 nM
A549 cells
  EC50: 500 to 5000 nM

## CC(C)(C)OC(=O)N[C@@H]1CCC[C@@H](C(=O)Nc2ccn(CCC(F)Cn3cc(C(=O)NCc4cccc(OC(F)(F)F)c4)nn3)c(=O)c2)C1 (stereo partly drawn) [Example 249, tert-butyl N-[(1R,3R)-3-[(1-{3-fluoro-4-[4-({[3-(trifluoromethoxy)phenyl]methyl}carbamoyl)-1H-1,2,3-triazol-1-yl]butyl}-2-oxo-1,2-dihydropyridin-4-yl)carbamoyl]cyclohexyl]carbamate]
[1]
  IC50: < 100 nM
A549 cells
  EC50: < 100 nM

## O=C(Cc1ccccn1)Nc1ccn(CCC(F)Cn2cc(C(=O)NCc3cccc(OC(F)(F)F)c3)nn2)c(=O)c1 (stereo not shown) [Example 250, 1-(2-fluoro-4-{2-oxo-4-[2-(pyridin-2-yl)acetamido]-1,2-dihydropyridin-1-yl}butyl)-N-{[3-(trifluoromethoxy)phenyl]methyl}-1H-1,2,3-triazole-4-carboxamide]
[1]
  IC50: < 100 nM
A549 cells
  EC50: 100 to 500 nM

## COc1cccc(CC(=O)Nc2ccn(CCC(F)Cn3cc(C(=O)NCc4cccc(OC(F)(F)F)c4)nn3)c(=O)c2)n1 (stereo not shown) [Example 251, 1-(2-fluoro-4-{4-[2-(6-methoxypyridin-2-yl)acetamido]-2-oxo-1,2-dihydropyridin-1-yl}butyl)-N-{[3-(trifluoromethoxy)phenyl]methyl}-1H-1,2,3-triazole-4-carboxamide]
[1]
  IC50: < 100 nM
A549 cells
  EC50: 100 to 500 nM

## O=C(Cc1nccs1)Nc1ccn(CCC(F)Cn2cc(C(=O)NCc3cccc(OC(F)(F)F)c3)nn2)c(=O)c1 (stereo not shown) [Example 252, 1-(2-fluoro-4-{2-oxo-4-[2-(1,3-thiazol-2-yl)acetamido]-1,2-dihydropyridin-1-yl}butyl)-N-{[3-(trifluoromethoxy)phenyl]methyl}-1H-1,2,3-triazole-4-carboxamide]
[1]
  IC50: < 100 nM
A549 cells
  EC50: 100 to 500 nM

## O=C(Cc1ccc2ccccc2n1)Nc1ccn(CCC(F)Cn2cc(C(=O)NCc3cccc(OC(F)(F)F)c3)nn2)c(=O)c1 (stereo not shown) [Example 253, 1-(2-fluoro-4-{2-oxo-4-[2-(quinolin-2-yl)acetamido]-1,2-dihydropyridin-1-yl}butyl)-N-{[3-(trifluoromethoxy)phenyl]methyl}-1H-1,2,3-triazole-4-carboxamide]
[1]
  IC50: < 100 nM
A549 cells
  EC50: 500 to 5000 nM

## CCOC(=O)N1CCN(CC(=O)Nc2ccn(CCC(F)Cn3cc(C(=O)NCc4cccc(OC(F)(F)F)c4)nn3)c(=O)c2)CC1 (stereo not shown) [Example 255, ethyl 4-{[(1-{3-fluoro-4-[4-({[3-(trifluoromethoxy)phenyl]methyl}carbamoyl)-1H-1,2,3-triazol-1-yl]butyl}-2-oxo-1,2-dihydropyridin-4-yl)carbamoyl]methyl}piperazine-1-carboxylate]
[1]
  IC50: < 100 nM
A549 cells
  EC50: < 100 nM

## N#CC1CCN(CC(=O)Nc2ccn(CCC(F)Cn3cc(C(=O)NCc4cccc(OC(F)(F)F)c4)nn3)c(=O)c2)CC1 (stereo not shown) [Example 256, 1-(4-{4-[2-(4-cyanopiperidin-1-yl)acetamido]-2-oxo-1,2-dihydropyridin-1-yl}-2-fluorobutyl)-N-{[3-(trifluoromethoxy)phenyl]methyl}-1H-1,2,3-triazole-4-carboxamide]
[1]
  IC50: < 100 nM
A549 cells
  EC50: 500 to 5000 nM

## O=C(CN1CCCC(CO)C1)Nc1ccn(CCC(F)Cn2cc(C(=O)NCc3cccc(OC(F)(F)F)c3)nn2)c(=O)c1 (stereo not shown) [Example 257, 1-[2-fluoro-4-(4-{2-[3-(hydroxymethyl)piperidin-1-yl]acetamido}-2-oxo-1,2-dihydropyridin-1-yl)butyl]-N-{[3-(trifluoromethoxy)phenyl]methyl}-1H-1,2,3-triazole-4-carboxamide]
[1]
  IC50: < 100 nM
A549 cells
  EC50: 500 to 5000 nM

## O=C(CC1CCCCC1)Nc1ccn(CCC(F)Cn2cc(C(=O)NCc3cc(C(F)(F)F)ccn3)nn2)c(=O)c1F (stereo not shown) [Example 258, 1-{4-[4-(2-cyclohexylacetamido)-3-fluoro-2-oxo-1,2-dihydropyridin-1-yl]-2-fluorobutyl}-N-{[4-(trifluoromethyl)pyridin-2-yl]methyl}-1H-1,2,3-triazole-4-carboxamide]
[1]
  IC50: < 100 nM
A549 cells
  EC50: < 100 nM

## O=C(CC1CCCCC1)Nc1ccn(CCC(F)Cn2cc(C(=O)NCc3cncc(C(F)(F)F)c3)nn2)c(=O)c1F (stereo not shown) [Example 259, 1-{4-[4-(2-cyclohexylacetamido)-3-fluoro-2-oxo-1,2-dihydropyridin-1-yl]-2-fluorobutyl}-N-{[5-(trifluoromethyl)pyridin-3-yl]methyl}-1H-1,2,3-triazole-4-carboxamide]
[1]
  IC50: < 100 nM
A549 cells
  EC50: < 100 nM

## O=C(CC1CCCCC1)Nc1ccn(CCC(F)Cn2cc(C(=O)NCc3ccc(C(F)(F)F)nc3)nn2)c(=O)c1F (stereo not shown) [Example 260, 1-{4-[4-(2-cyclohexylacetamido)-3-fluoro-2-oxo-1,2-dihydropyridin-1-yl]-2-fluorobutyl}-N-{[6-(trifluoromethyl)pyridin-3-yl]methyl}-1H-1,2,3-triazole-4-carboxamide]
[1]
  IC50: < 100 nM
A549 cells
  EC50: < 100 nM

## O=C(CC1CCCCC1)Nc1ccn(CCC(F)Cn2cc(C(=O)NCc3ccc(C(F)(F)F)cn3)nn2)c(=O)c1F (stereo not shown) [Example 261, 1-{4-[4-(2-cyclohexylacetamido)-3-fluoro-2-oxo-1,2-dihydropyridin-1-yl]-2-fluorobutyl}-N-{[5-(trifluoromethyl)pyridin-2-yl]methyl}-1H-1,2,3-triazole-4-carboxamide]
[1]
  IC50: < 100 nM
A549 cells
  EC50: < 100 nM
